Assay results taken from patent publication US9777003B2, “Tricyclic heterocycles as bet protein inhibitors” (Incyte Corporation, priority 2013, dated 2017).
Where a name gives a salt, the structure may show the parent alone.

How the values were obtained:
BRD4-BD1 = BRD4-BD1 (Homo sapiens (Human), UniProt O60885); assay: BRD4 AlphaScreen assay, BRD4-BD1; assay type: binding; details: biotin-labeled tetra-acetylated histone H4 peptide, 75 min, room temperature, read-out: BRD4 BD-1 enzyme IC50
How it was run: (§1)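 AlphaScreen displacement of 50 nM biotin-tetra-acetylated H4 peptide from 3.8 nM BRD4-BD1 (1.25% DMSO) or 20 nM BRD4-BD2 (0.83% DMSO) in HEPES pH 7.4 buffer, 75 min RT. Streptavidin donor/GSH acceptor beads added, 75 min dark; IC50 from log-concentration curve fit.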

BRD4-BD2 = BRD4-BD2 (Homo sapiens (Human), UniProt O60885); assay: BRD4 AlphaScreen assay, BRD4-BD2; assay type: binding; details: biotin-labeled tetra-acetylated histone H4 peptide, 75 min, room temperature, read-out: BRD4 BD-2 enzyme IC50
How it was run: as §1

IC50 (BRD4-BD1)	IC50 (BRD4-BD2)	Compound
≤ 100 nM	≤ 100 nM	Cc1nnc2ccc3c(cc(-c4ccn(CCC(=O)N5CCN(C)CC5)n4)n3Cc3cccc(Cl)c3)n12 [Example 105, 6-(3-chlorobenzyl)-1-methyl-7-{1-[3-(4-methylpiperazin-1-yl)-3-oxopropyl]-1H-pyrazol-3-yl}-6H-pyrrolo[2,3-e][1,2,4]triazolo[4,3-a]pyridine]
≤ 100 nM	≤ 100 nM	CC(=O)N1CC(CC#N)(n2ccc(-c3cc4c(ccc5nnc(C)n54)n3Cc3cccc(Cl)c3)n2)C1 [Example 106, (1-acetyl-3-{3-[6-(3-chlorobenzyl)-1-methyl-6H-pyrrolo[2,3-e][1,2,4]triazolo[4,3-a]pyridin-7-yl]-1H-pyrazol-1-yl}azetidin-3-yl)acetonitrile]
≤ 100 nM	≤ 100 nM	Cc1nnc2ccc3c(cc(-c4ccn(C5(CC#N)CN(S(C)(=O)=O)C5)n4)n3Cc3cccc(Cl)c3)n12 [Example 107, [3-{3-[6-(3-chlorobenzyl)-1-methyl-6H-pyrrolo[2,3-e][1,2,4]triazolo[4,3-a]pyridin-7-yl]-1H-pyrazol-1-yl}-1-(methylsulfonyl)azetidin-3-yl]acetonitrile]
≤ 100 nM	≤ 100 nM	CC(=O)N1CC(n2ccc(-c3cc4c(ccc5nnc(C)n54)n3Cc3cccc(Cl)c3)n2)C1 [Example 108, 7-[1-(1-acetylazetidin-3-yl)-1H-pyrazol-3-yl]-6-(3-chlorobenzyl)-1-methyl-6H-pyrrolo[2,3-e][1,2,4]triazolo[4,3-a]pyridine]
100 to 1000 nM	100 to 1000 nM	Cc1nnc2ccc3c(cnn3Cc3ccccc3)n12 [Example 112, 6-benzyl-1-methyl-6H-pyrazolo[3,4-e][1,2,4]triazolo[4,3-a]pyridine]
≤ 100 nM	≤ 100 nM	CCNC(=O)c1cc2c(ccc3nnc(C)n32)n1Cc1cccc(Cl)c1 [Example 113, 6-(3-Chlorobenzyl)-N-ethyl-1-methyl-6H-pyrrolo[2,3-e][1,2,4]triazolo[4,3-a]pyridine-7-carboxamide Trifluoroacetate Salt]
≤ 100 nM	≤ 100 nM	Cc1nnc2ccc3c(cc(C(=O)NCC4CC4)n3Cc3cccc(Cl)c3)n12 [Example 114, 6-(3-Chlorobenzyl)-N-(cyclopropylmethyl)-1-methyl-6H-pyrrolo[2,3-e][1,2,4]triazolo[4,3-a]pyridine-7-carboxamide Trifluoroacetate Salt]
100 to 1000 nM	100 to 1000 nM	Cc1nnc2ccc3c(cc(C(=O)NCCN(C)C)n3Cc3cccc(Cl)c3)n12 [Example 115, 6-(3-Chlorobenzyl)-N-[2-(dimethylamino)ethyl]-1-methyl-6H-pyrrolo[2,3-e][1,2,4]triazolo[4,3-a]pyridine-7-carboxamide bis(trifluoroacetate) Salt]
1000 to 10000 nM	1000 to 10000 nM	Cc1nnc2ccc3c(cc(C(=O)N4CCOCC4)n3Cc3cccc(Cl)c3)n12 [Example 116, 6-(3-Chlorobenzyl)-1-methyl-7-(morpholin-4-ylcarbonyl)-6H-pyrrolo[2,3-e][1,2,4]triazolo[4,3-a]pyridine Trifluoroacetate Salt]
≤ 100 nM	≤ 100 nM	Cc1nnc2ccc3c(cc(C(=O)NCCO)n3Cc3cccc(Cl)c3)n12 [Example 117, 6-(3-Chlorobenzyl)-N-(2-hydroxyethyl)-1-methyl-6H-pyrrolo[2,3-e][1,2,4]triazolo[4,3-a]pyridine-7-carboxamide Trifluoroacetate Salt]
100 to 1000 nM	100 to 1000 nM	Cc1nnc2ccc3c(cc(C(=O)NC4CN(C)C4)n3Cc3cccc(Cl)c3)n12 [Example 118, 6-(3-Chlorobenzyl)-1-methyl-N-(1-methylazetidin-3-yl)-6H-pyrrolo[2,3-e][1,2,4]triazolo[4,3-a]pyridine-7-carboxamide bis(trifluoroacetate) Salt]
≤ 100 nM	≤ 100 nM	Cc1nnc2ccc3c(cc(C(=O)NCCN4CCOCC4)n3Cc3cccc(Cl)c3)n12 [Example 119, 6-(3-Chlorobenzyl)-1-methyl-N-(2-morpholin-4-ylethyl)-6H-pyrrolo[2,3-e][1,2,4]triazolo[4,3-a]pyridine-7-carboxamide Trifluoroacetate Salt]
100 to 1000 nM	100 to 1000 nM	Cc1nnc2ccc3c(cc(C(=O)NC(C)(C)C)n3Cc3cccc(Cl)c3)n12 [Example 120, N-(tert-Butyl)-6-(3-chlorobenzyl)-1-methyl-6H-pyrrolo[2,3-e][1,2,4]triazolo[4,3-a]pyridine-7-carboxamide Trifluoroacetate Salt]
≤ 100 nM	≤ 100 nM	CCNC(=O)c1cc2c(ccc3nnc(C)n32)n1Cc1cccc(CN2CCC2)c1 [Example 121, 6-[3-(Azetidin-1-ylmethyl)benzyl]-N-ethyl-1-methyl-6H-pyrrolo[2,3-e][1,2,4]triazolo[4,3-a]pyridine-7-carboxamide bis(trifluoroacetate) Salt]
≤ 100 nM	≤ 100 nM	CNC(=O)c1cc2c(ccc3nnc(C)n32)n1Cc1cccc(CN2CCC2)c1 [Example 122, 6-[3-(Azetidin-1-ylmethyl)benzyl]-N,1-dimethyl-6H-pyrrolo[2,3-e][1,2,4]triazolo[4,3-a]pyridine-7-carboxamide bis(trifluoroacetate) Salt]
100 to 1000 nM	≤ 100 nM	Cc1nnc2ccc3c(cc(C(=O)NCCCO)n3Cc3ccccc3)n12 [Example 123, 6-Benzyl-N-(3-hydroxypropyl)-1-methyl-6H-pyrrolo[2,3-e][1,2,4]triazolo[4,3-a]pyridine-7-carboxamide Trifluoroacetate Salt]
1000 to 10000 nM	1000 to 10000 nM	Cc1nnc2ccc3c(cc(C(=O)NCC4CNC4)n3Cc3ccccc3)n12 [Example 124, N-(Azetidin-3-ylmethyl)-6-benzyl-1-methyl-6H-pyrrolo[2,3-e][1,2,4]triazolo[4,3-a]pyridine-7-carboxamide bis(trifluoroacetate) Salt]
100 to 1000 nM	100 to 1000 nM	Cc1nnc2ccc3c(cc(C(=O)NCC(C)C)n3Cc3ccccc3)n12 [Example 125, 6-Benzyl-N-isobutyl-1-methyl-6H-pyrrolo[2,3-e][1,2,4]triazolo[4,3-a]pyridine-7-carboxamide Trifluoroacetate]
≤ 100 nM	≤ 100 nM	Cc1nnc2ccc3c(cc(C(=O)NCCCO)n3Cc3cccc(Cl)c3)n12 [Example 127, 6-(3-Chlorobenzyl)-N-(3-hydroxypropyl)-1-methyl-6H-pyrrolo[2,3-e][1,2,4]triazolo[4,3-a]pyridine-7-carboxamide Trifluoroacetate Salt]
100 to 1000 nM	100 to 1000 nM	Cc1nnc2ccc3c(cc(C(=O)NCC4CNC4)n3Cc3cccc(Cl)c3)n12 [Example 128, N-(Azetidin-3-ylmethyl)-6-(3-chlorobenzyl)-1-methyl-6H-pyrrolo[2,3-e][1,2,4]triazolo[4,3-a]pyridine-7-carboxamide bis(trifluoroacetate) Salt]

Compound	IC50 (BRD4-BD1)	IC50 (BRD4-BD2)
Cc1nnc2ccc3c(cc(C(=O)NCc4ccncc4)n3Cc3ccccc3)n12 [Example 126, 6-Benzyl-1-methyl-N-(pyridin-4-ylmethyl)-6H-pyrrolo[2,3-e][1,2,4]triazolo[4,3-a]pyridine-7-carboxamide bis(trifluoroacetate) Salt]	100 to 1000 nM	100 to 1000 nM
